Experiment [1] deals with Matrix metalloproteinase-9 (Homo sapiens, UniProt P14780). The experiment is described as follows: Inhibition of Matrix metalloprotease-9.
Experiment [2] concerns the target Neutrophil collagenase (Homo sapiens, UniProt P22894). The experiment is described as follows: Inhibition of matrix metalloprotease-8.
Experiment [3] deals with T1, Stromelysin-3 (Mus musculus, UniProt Q02853).
T1 sequence (Q02853 whole entry): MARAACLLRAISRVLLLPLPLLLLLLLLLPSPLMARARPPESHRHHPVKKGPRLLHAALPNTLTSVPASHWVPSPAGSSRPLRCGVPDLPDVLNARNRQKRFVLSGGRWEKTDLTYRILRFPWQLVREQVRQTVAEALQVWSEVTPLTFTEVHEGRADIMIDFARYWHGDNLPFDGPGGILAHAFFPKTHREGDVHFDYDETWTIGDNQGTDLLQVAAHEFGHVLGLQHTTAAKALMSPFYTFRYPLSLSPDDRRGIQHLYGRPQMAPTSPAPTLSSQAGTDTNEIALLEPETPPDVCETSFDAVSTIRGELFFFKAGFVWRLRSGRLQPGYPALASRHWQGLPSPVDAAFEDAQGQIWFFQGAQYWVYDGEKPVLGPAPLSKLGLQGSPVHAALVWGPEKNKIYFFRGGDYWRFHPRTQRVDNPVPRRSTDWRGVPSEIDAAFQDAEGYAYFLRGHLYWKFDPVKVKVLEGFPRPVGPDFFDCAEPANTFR
The experiment is described as follows: Inhibition of Matrix metalloprotease-11.

Experiment [4] concerns the target Matrix metalloproteinase-14 (Homo sapiens, UniProt P50281). The experiment is described as follows: Inhibition of Matrix metalloprotease-14.
Experiment [5] addresses Collagenase 3 (Homo sapiens, UniProt P45452). The experiment in a line: Inhibition of matrix metalloprotease-13.
Experiment [6] addresses 72 kDa type IV collagenase (Homo sapiens, UniProt P08253). The experiment in a line: Inhibition of Matrix metalloprotease-2.
Experiment [7] deals with T2, Interstitial collagenase (Homo sapiens, UniProt P03956).
T2 sequence (P03956 whole entry): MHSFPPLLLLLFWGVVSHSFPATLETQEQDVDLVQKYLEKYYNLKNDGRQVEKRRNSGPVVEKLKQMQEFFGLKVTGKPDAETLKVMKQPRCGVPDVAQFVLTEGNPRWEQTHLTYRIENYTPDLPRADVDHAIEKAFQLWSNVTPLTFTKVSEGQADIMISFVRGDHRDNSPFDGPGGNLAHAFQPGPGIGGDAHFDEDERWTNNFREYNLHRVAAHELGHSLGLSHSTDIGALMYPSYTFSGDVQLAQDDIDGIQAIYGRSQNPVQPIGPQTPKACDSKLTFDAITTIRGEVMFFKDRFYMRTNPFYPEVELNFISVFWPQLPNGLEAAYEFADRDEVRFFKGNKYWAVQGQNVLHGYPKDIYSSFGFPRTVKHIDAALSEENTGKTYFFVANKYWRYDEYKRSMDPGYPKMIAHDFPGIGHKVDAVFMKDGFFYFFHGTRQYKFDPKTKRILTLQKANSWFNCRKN
The experiment is described as follows: Inhibition of matrix metalloprotease-1.

The target in experiment [8] is T3, Matrilysin (Homo sapiens, UniProt P09237).
T3 sequence (P09237 whole entry): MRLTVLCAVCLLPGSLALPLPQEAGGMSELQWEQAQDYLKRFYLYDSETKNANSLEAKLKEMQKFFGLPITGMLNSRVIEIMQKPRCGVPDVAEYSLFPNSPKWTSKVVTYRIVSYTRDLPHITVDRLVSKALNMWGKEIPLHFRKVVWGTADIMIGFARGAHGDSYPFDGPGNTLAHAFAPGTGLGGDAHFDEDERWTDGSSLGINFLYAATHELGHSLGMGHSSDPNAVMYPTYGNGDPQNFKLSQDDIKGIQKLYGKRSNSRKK
The experiment is described as follows: Inhibition of Matrix metalloprotease-7.

Ki data for four compounds are collected here from ChEMBL document CHEMBL1148378 (J Med Chem, 2004).

Sequence of 72 kDa type IV collagenase (P08253 whole entry): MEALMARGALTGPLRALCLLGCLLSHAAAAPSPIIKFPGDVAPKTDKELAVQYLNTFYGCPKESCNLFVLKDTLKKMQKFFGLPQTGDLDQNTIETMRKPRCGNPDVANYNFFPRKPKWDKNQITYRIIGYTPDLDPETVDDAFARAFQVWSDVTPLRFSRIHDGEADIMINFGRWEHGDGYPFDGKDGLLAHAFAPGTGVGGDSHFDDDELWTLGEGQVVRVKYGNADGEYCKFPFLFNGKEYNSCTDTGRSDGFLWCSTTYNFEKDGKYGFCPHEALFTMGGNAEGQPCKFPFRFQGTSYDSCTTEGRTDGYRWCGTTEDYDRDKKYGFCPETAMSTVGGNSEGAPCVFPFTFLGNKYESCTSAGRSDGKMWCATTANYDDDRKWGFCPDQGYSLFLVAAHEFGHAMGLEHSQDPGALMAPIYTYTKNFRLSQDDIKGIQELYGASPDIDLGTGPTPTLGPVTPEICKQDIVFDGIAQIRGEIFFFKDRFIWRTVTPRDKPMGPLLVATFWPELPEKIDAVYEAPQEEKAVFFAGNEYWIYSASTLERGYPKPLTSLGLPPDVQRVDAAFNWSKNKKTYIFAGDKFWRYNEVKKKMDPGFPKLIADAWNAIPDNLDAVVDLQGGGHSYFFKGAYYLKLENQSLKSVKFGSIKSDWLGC
Sequence of Matrix metalloproteinase-9 (P14780 whole entry): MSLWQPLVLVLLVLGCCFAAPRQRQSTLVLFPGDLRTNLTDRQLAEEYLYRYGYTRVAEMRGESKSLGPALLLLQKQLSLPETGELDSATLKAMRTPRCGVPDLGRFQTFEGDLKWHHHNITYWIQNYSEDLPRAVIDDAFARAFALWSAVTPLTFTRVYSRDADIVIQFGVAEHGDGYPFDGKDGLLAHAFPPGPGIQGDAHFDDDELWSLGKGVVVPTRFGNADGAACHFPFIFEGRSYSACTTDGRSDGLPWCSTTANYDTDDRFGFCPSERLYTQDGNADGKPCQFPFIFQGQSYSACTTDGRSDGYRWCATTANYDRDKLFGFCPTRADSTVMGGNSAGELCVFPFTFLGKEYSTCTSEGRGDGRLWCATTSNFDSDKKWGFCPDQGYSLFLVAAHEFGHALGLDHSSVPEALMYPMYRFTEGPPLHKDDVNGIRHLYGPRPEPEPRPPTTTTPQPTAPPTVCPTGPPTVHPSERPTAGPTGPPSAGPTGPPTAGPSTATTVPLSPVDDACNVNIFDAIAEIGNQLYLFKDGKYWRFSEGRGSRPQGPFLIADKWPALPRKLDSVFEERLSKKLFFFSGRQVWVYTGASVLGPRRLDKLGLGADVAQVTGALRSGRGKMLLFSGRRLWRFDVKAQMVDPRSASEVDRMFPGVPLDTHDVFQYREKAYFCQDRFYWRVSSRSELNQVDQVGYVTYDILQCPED
Sequence of Neutrophil collagenase (P22894 whole entry): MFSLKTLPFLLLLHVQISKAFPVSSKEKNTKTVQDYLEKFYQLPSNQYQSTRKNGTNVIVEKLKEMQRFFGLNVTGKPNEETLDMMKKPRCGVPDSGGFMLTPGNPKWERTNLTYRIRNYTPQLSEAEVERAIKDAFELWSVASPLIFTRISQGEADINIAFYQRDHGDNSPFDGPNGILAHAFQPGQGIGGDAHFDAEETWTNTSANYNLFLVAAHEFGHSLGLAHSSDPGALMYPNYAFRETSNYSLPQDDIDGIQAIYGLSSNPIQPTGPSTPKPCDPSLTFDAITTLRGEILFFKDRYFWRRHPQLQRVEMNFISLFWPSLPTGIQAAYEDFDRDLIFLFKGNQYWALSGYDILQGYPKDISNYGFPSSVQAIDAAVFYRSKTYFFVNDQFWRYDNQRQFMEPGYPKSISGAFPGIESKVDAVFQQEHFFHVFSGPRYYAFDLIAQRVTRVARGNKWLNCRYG

The Ki is the dissociation constant of the complex between target and ligand, obtained from inhibition or displacement. Lower therefore signals tighter binding. As to `NC(=O)C(Cc1c[nH]c2ccccc12)NC(=O)C(CSc1ccccc1Br)CP(=O)(O)C(Cc1ccccc1)NC(=O)OCc1ccccc1` (stereo not given), the Ki in experiment [1] is 3.91 µM; in experiment [2] it was 18.4 µM; in experiment [3] it was 0.11 µM; in experiment [4], 30.1 µM; in experiment [5], 4.7 µM; in experiment [6] it was 4.65 µM.
Consider `NC(=O)C(Cc1c[nH]c2ccccc12)NC(=O)C(CCCc1ccccc1)CP(=O)(O)C(Cc1ccccc1)NC(=O)OCc1ccccc1` (stereo not given), for which the inhibition constant (Ki) in experiment [7] and in experiment [8] was above 2 µM throughout.
For `COc1ccccc1SCC(CP(=O)(O)C(Cc1ccccc1)NC(=O)OCc1ccccc1)C(=O)NC(Cc1c[nH]c2ccccc12)C(N)=O` (stereo not given), the Ki in experiment [1] came to 35.6 µM; in experiment [2], 38.9 µM; in experiment [3], 0.23 µM; in experiment [4] it was 160 µM; in experiment [5], 15.7 µM; in experiment [6] it was 30 µM.
Consider `NC(=O)C(Cc1c[nH]c2ccccc12)NC(=O)C(CSc1ccccc1OC(F)(F)F)CP(=O)(O)C(Cc1ccccc1)NC(=O)OCc1ccccc1` (stereo not given), for which the Ki in experiment [1] was found to be 148 µM; in experiment [2] it was 200 µM; in experiment [3], 0.41 µM; in experiment [4], 30 µM; in experiment [5], 200 µM; in experiment [6], 200 µM.
